Values joined by “and” are separate entries in the source; they are usually repeats but may differ in a detail not shown here. Equal values may be shown once. Read-outs that look alike come from different tables or passages of the source.
Legend:
[1] = system: L-DOPA induced dyskinesia in 6-OHDA lesioned rats; assay: chronic model of L-DOPA induced dyskinesia in unilaterally 6-OHDA lesioned rats (dyskinesia score); type: in vivo; design: side effects: dose or concentration left out as unconfirmed
From the text: Method: The model has been developed by Cenci, Lee and Bjorklund (L-DOPA-induced dyskinesia in the rat is associated with striatal overexpression of prodynorphin- and glutamic acid decarboxylase mRNA, Eur J. Neurosci. 1998; 10:2694-706) and was modified to show more severe dyskinesia. In brief, rats are first unilaterally lesioned in the medial forebrain bundle resulting in a near complete loss of the mesostriatal dopamine pathway. After a recovery, rats receive daily doses of both, L-DOPA and benserazide. Within less than 3 weeks, rats develop typical dyskinetic movements, both affecting their forearms and the oral regions. […] The dyskinesia can be quantified using an easy and reliable scoring system developed by Cenci et al.
Dopamine-denervating lesions were performed by unilateral injections of 8 μg 6-OHDA in the left medial forebrain bundle of female Sprague-Dawley rats. All rats were tested for amphetamine-induced rotational behaviour 2 weeks after the injection. Rats showing >4 ipsilateral rotations/min over a 90-minute period were presumed to have a striatal dopamine depletion of more than 90%. At 4 weeks post lesion, 2 groups started to receive chronic treatment with either 20 mg/kg levodopa and 15 mg/kg benserazide or vehicle for 20 days. For rating, dyskinesia was classified into three subtypes (limb, axial and orolingual) and scored from 0 (=absent) to 4 (=permanent, not suppressible) over 200 minutes and every 30 minutes.
Results and Discussion: For drug testing, retigabine (2.5 and 5 mg/kg) was administered additional to levodopa and vehicle respectively. Effects of drug action in comparison to vehicle controls were detected by adding up the severity scores of each observation time.
To test the effect of flupirtine, the compound was administered at the dose of 10 mg/kg i.p. after administration of L-DOPA in these rats. A full cross over design was utilized to account for individual variability. […] The studies are ongoing and will we extended to cover a full dose range. Also, other neuronal potassium channel openers covered by the patent application will be tested. […]

[2] = system: dt^sz mutant hamster; type: in vivo, Syrian golden hamsters; conditions: for Maximum severity 1st h, drug: individual animals and Mean, score 0-6; for Latency to onset (min), Drug: time to stage 2, mean ± S.E.; for suppressing the symptoms of dystonia (summary statement): summary for the two animal models of dystonia/dyskinesia, no dose given; for Latency max (min), drug: latency to stage 6
From the text: Animals The dt^sz mutant hamsters (Syrian golden hamsters), used in the present experiments, were obtained by selective breeding as described in detail elsewhere (Richter and Löscher, 1998). In this inbred line of mutant hamsters the motor disturbances are transmitted by a recessive gene. All animal groups consisted of male and female hamsters, because there was no indication of sex-related differences in the severity of dystonia or in the response to drugs (Richter and Löscher, 1998). The animals were born and kept under controlled environmental conditions (23-25° C., 50-60% humidity, 13 h light/11 h dark cycle) with free access to standard Altromin 7204 diet and water. In cases of oral administrations the food was deprived for 2 h prior to the experiments. All experiments were carried out in the morning (08.30-12.00 a.m.) at controlled temperatures (23-25° C.).
Induction of dystonic episodes and severity-score of dystonia. […] After this procedure, dt^sz hamsters develop a sequence of abnormal movements and postures. Dystonia is the predominant symptom in these animals. The severity of dystonia can be rated by following score-system (Richter and Löscher, 1998): stage 1, flat body posture; stage 2, facial contortions, rearing with forelimbs crossing, disturbed gait with hyperextended forepaws; stage 3, hyperextended hindlimbs so that the animals appear to walk on tiptoes; stage 4, twisting movements and loss of balance; stage 5, hindlimbs hyperextended caudally; stage 6, immobilisation in a twisted, hunched posture with hind- and forelimbs tonically extended forward. After reaching the individual maximum stage the hamsters recover within 2-5 hours. The individual maximum stage of dystonia is usually reached within 3 hours after the hamsters were placed into the new cage. Therefore, the animals have to be observed for 3 h after the induction of dystonic attacks to determine the individual maximum stage reached after administrations of drugs or of vehicle (for pre- and post-drug control recordings).
In the present study, all animals were examined for the presence of dystonia after weaning at the age of 21 days by the triple stimulation procedure, including injections of saline. […] All groups of mutant hamsters used for investigations were repeatedly tested by triple stimulations (injections of saline) every 2 to 3 days after weaning until the severity of dystonia and latencies to the different stages were reproducible. The drug experiments were done in 30-42 days old hamsters, i.e. at an age of the maximum severity of dystonia.
Drug experiments The effects of the Kv7.2/7.3 channel activators retigabine (5, 7.5 and 10 mg/kg i.p. and 10 and 20 mg/kg p.o.) and flupirtine (10 and 20 mg/kg i.p.) were examined in groups of 6-10 dt^s/z hamsters. The total number of animals used for the present experiments was 68. The compounds were freshly dissolved in saline prior the experiments. Dystonic attacks were induced by the procedure of triple stimulation, as described above, but instead of saline the active compound was injected (injection volume: 5 ml/kg i.p. or p.o.). Pre- and post-drug control trials with the vehicle (injection volume: 5 ml/kg saline i.p. or p.o.) were undertaken 2-3 days before and 2-3 days after drug testing in the same animals. […] During this period the severity of dystonia, the latencies to the different stages and the side effects were noted. The rater of the severity score (and of the latencies to stages) was unaware whether the animals were treated with vehicle or an active principle. A second person who had done the preparation of the solutions observed the animals for behavioural effects. The side effects were not quantified, but locomotor activity and ataxia were determined according to a score system, as previously described (Löscher and Richter, 1994). […]

[3] = mean of 10 animals, 20 mg/kg i.p., age 36-38 days of life
[4] = 20 mg/kg p.o., first hour after administration

Compound: CCOC(=O)Nc1ccc(NCc2ccc(F)cc2)nc1N [Flupirtine, ethyl-N-[2-amino-6-(4-fluorophenylmethylamino)pyridin-3-yl]-carbamate]
- tolerability ([1]; 10 mg/kg i.p. after administration of L-DOPA): well tolerated
- dyskinetic symptoms ([1]; 10 mg/kg i.p. after administration of L-DOPA, cross over design): capable of suppressing the typical dyskinetic symptoms
- antidystonic effects ([2]; 10 mg/kg i.p.): did not exerted significant antidystonic effects
- Maximum severity 1st h, drug ([2]; 10 mg/kg i.p.): 3 score (6×) and 2 score (2×)
- Latency to onset (min), Drug ([2]; 10.0 mg/kg i.p., n=8): 6.9 ± 1.6 min
- adverse effects ([2]; 10 mg/kg i.p., within the first hour after administration): moderate hypolocomotion and ataxia
- ataxia ([2]; 20 mg/kg i.p.): more marked ataxia (lasting up to 90 min)
- latency to onset of dystonia ([2]; 20 mg/kg i.p.): increased the latency to onset of dystonia
- progression of dystonia ([2]; 20 mg/kg i.p., first and second h): delayed the progression of dystonia
- locomotion ([2]; 20 mg/kg i.p., hyperlocomotion 15-60 min after injection): unequivocal hypolocomotion (5 to 15 min after injection) followed by hyperlocomotion
- maximum severity of dystonia ([2]; 20 mg/kg i.p., third h): reduced the maximum severity
- Latency to onset (min), Drug ([2]; 20.0 mg/kg i.p., n=10, *P<0.05): 13.8 ± 3.8* min
- Maximum severity 1st h (score of dystonia), drug ([2]; individual animals, 20 mg/kg i.p. (in 0.9% NaCl), dt^sz hamsters, age 36-38 days of life): 2 score
- Latency max (latency to stage 6), drug ([2]; individual animals, 20 mg/kg i.p., age 36-38 days of life): 154 min
- Latency onset (latency on stage 2), drug, Mean [2, 3]: 13.8 min
- Maximum severity 1st h (score of dystonia), drug, Mean [2, 3]: 2.0 score
- Maximum severity 2nd h (score of dystonia), drug, Mean [2, 3]: 2.6 score
- Maximum severity 3rd h (score of dystonia), drug, Mean [2, 3]: 2.9 score
- suppressing the symptoms of dystonia (summary statement) [2]: found to be effective

Compound: CCOC(=O)Nc1ccc(NCc2ccc(F)cc2)cc1N [Retigabine, 2-amino-4-(4-fluorobenzylamino)-1-ethoxycarbonyl-aminobenzene]
- side effects ([1]; higher dosage, first hour of observation): marked hypolocomotion and ataxia
- Latency max (min), drug ([2]; 5 mg/kg i.p., individual animals): 43 min and 87 min and 39 min
- Latency to onset (min), Drug ([2]; 5.0 mg/kg i.p., n=9): 27.1 ± 17.7 min
- Latency max (min), drug ([2]; 7.5 mg/kg i.p., individual animals): 149 min
- Latency to onset (min), Drug ([2]; 7.5 mg/kg i.p., n=6, *P<0.05): 11.8 ± 1.0* min
- pain after injection ([2]; 10 mg/kg i.p., first 5 min after injection): writhed with pain
- Latency to onset (min), Drug ([2]; 10.0 mg/kg i.p., n=9): 7.1 ± 2.9 min
- Maximum severity 1st h, drug ([2]; 10 mg/kg p.o.): 3 score (6×) and 2 score
- Latency max (min), drug ([2]; 10 mg/kg p.o., individual animals): 168 min and 148 min
- Latency to onset (min), Drug ([2]; 10.0 mg/kg p.o., n=7): 4.9 ± 2.9 min
- locomotor activity ([2]; 10 mg/kg p.o., two hamsters): moderate reduction of the locomotor activity
- ataxia [2, 4]: seven animals exhibited moderate ataxia
- hypolocomotion [2, 4]: five hamsters showed moderate hypolocomotion
- Maximum severity 1st h, drug ([2]; 20 mg/kg p.o.): 2 score (9×) and 3 score
- Latency max (min), drug ([2]; 20 mg/kg p.o., individual animals): 104 min
- Latency to onset (min), Drug ([2]; 20.0 mg/kg p.o., n=10): 9.6 ± 2.0 min
- general condition ([2]; four hamsters, 5 mg/kg i.p. five days after 10 mg/kg i.p., one euthanized, dilated colon): bad general condition
- behavioural effects ([2]; i.p. injection, within the first h after administration): moderate to unequivocal hypolocomotion (sometimes interrupted by short lasting periods of increased locomotor activity) and ataxia
- side effects ([2]; oral doses of 10 and 20 mg/kg): did not exert severe side effects

Compound: O=C1c2ccccc2C(Cc2ccncc2)(Cc2ccncc2)c2ccccc21 [XE-991, 10,10-bis(4-pyridinylmethyl)-9(10H)-anthracenone]
- side effects ([2]; 6 mg/kg as printed, two out of 8 animals, facial contortions 10-20 min after administration): moderate to unequivocal hyperlocomotion and moderate ataxia (up to 180 min) and marked initial facial contortions
- latency to onset of dystonia ([2]; i.p., not illustrated): tended to be decreased
- side effects ([2]; the higher dose, all hamsters): facial contortions, salivation and increased defecation
- side effects: locomotion and ataxia ([2]; the higher dose, first h after administration): unequivocal hyperlocomotion and ataxia

Compound: COc1ccc(Cl)cc1C1(F)C(=O)Nc2cc(C(F)(F)F)ccc21 (stereo not shown) [maxipost, 3-(5-chloro-2-methoxyphenyl)-1,3-dihydro-3-fluoro-6-(trifluoromethyl)-2H-indole-2-one]
- suppressing the symptoms of dystonia (summary statement) [2]: found to be active

From patent publication US20090137641A1, “Potassium Channel Activators for the Prevention and Treatment of Dystonia and Dystonia-Like Symptoms” (priority 2006, published 2009)
